Results filed as inconclusive are left out. Calls of active or inactive are those of the source.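 The calls were made as follows: active = compound lowering the normal-ribosome reporter at least twice as much as the humanized-ribosome reporter, growth loss under a set limit; inconclusive = no clear call, values can overlap the other calls; inactive = the rest.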
Tests used:
Assay in all cases: E. coli growth inhibition, wild-type GFP versus h24 humanized RFP strain, dose response, h24 mutant RFP vs wild-type GFP, cherry-pick (AID 977628)
[1] = test system: E. coli WT GFP strain growth, fluorescence, 24 h
[2] = test system: E. coli h24 humanized mutant RFP strain growth, fluorescence, 24 h
[3] = test system: E. coli mixed WT/h24 culture total growth, OD600, 24 h

For COc1ccc(NC(=O)c2cccnc2SC)cc1S(=O)(=O)N1CCCCC1, the AC50 [1] was > 100 µM (inactive), the AC50 [2] was over 100 µM and the AC50 [3] was over 100 µM.

For CCOc1ccc(NC(=O)CN(C)CC(=O)Nc2ccc(Br)cc2F)cc1OCC, the AC50 [1] was > 100 µM (inactive), the AC50 [2] was over 100 µM and the AC50 [3] was over 100 µM.

For Nc1[nH]c(C(=O)c2ccccc2)c(-c2ccc3c(c2)OCO3)c1C(=O)NCCc1c[nH]c2ccccc12, the AC50 [1] was > 100 µM (inactive), the AC50 [2] was over 100 µM and the AC50 [3] was over 100 µM.

CCc1cc(C(=O)c2ccc(OC)cc2)c(NC(=O)CCC(=O)O)s1 was tested, and the AC50 [1] was > 100 µM (inactive), the AC50 [2] was 49 µM and the AC50 [3] was 50.9 µM.

In the case of CCCCNC(=O)C[C@@H]1C[C@@]2(C(=O)OC)CCCCC=C2N(Cc2ccccc2)C1=O, the AC50 [1] is reported as > 100 µM (inactive), the AC50 [2] is reported as over 100 µM and the AC50 [3] is reported as over 100 µM.

With Cc1cc(C)n2nc(C(=O)Nc3cccc(S(=O)(=O)N(C)c4ccccc4)c3)nc2n1 the AC50 [1] was > 100 µM (inactive), the AC50 [2] was over 100 µM and the AC50 [3] was over 100 µM.

For C=CCNc1ccc2c(c1)OC[C@H](CC(C)C)NS2(=O)=O, the AC50 [1] was > 100 µM (inactive), the AC50 [2] was over 100 µM and the AC50 [3] was over 100 µM.

Cc1cccc(S(=O)(=O)Nc2ccc(-c3cn4ccccc4n3)cc2)c1 was tested, and the AC50 [1] was > 100 µM (inactive), the AC50 [2] was over 100 µM and the AC50 [3] was 29.7 µM.

For CCn1cc(Br)c(C(=O)Nc2ccc(C(=O)OC(C)C)cc2)n1, the AC50 [1] was > 100 µM (inactive), the AC50 [2] was 2.96 µM and the AC50 [3] was 19.9 µM.

O=C(O)c1cc(S(=O)(=O)N2CCN(C(c3ccccc3)c3ccccc3)CC2)ccc1Cl was tested, and the AC50 [1] was > 100 µM (inactive), the AC50 [2] was over 100 µM and the AC50 [3] was over 100 µM.

With O=C1c2cccc(OCC(=O)N3CCCc4ccccc43)c2CCN1Cc1cccnc1 the AC50 [1] was > 100 µM (inactive), the AC50 [2] was 9.06 µM and the AC50 [3] was 45.8 µM.

In the case of CCc1cccc(NC(=O)CCC(=O)N2CCSc3ccccc32)c1, the AC50 [1] is reported as > 100 µM (inactive), the AC50 [2] is reported as over 100 µM and the AC50 [3] is reported as 41.7 µM.

In the case of COc1ccc2cc(CO)c3cc(OC)c(OC)cc3c2c1, the AC50 [1] is reported as > 100 µM (inactive), the AC50 [2] is reported as over 100 µM and the AC50 [3] is reported as over 100 µM.

c1ccc(-c2nc(-c3cccnc3)cs2)cc1 was tested, and the AC50 [1] was > 100 µM (inactive), the AC50 [2] was over 100 µM and the AC50 [3] was over 100 µM.

O=C(O)CCSc1nc2ccccc2n1-c1ccccc1 was tested, and the AC50 [1] was > 100 µM (inactive), the AC50 [2] was 29.2 µM and the AC50 [3] was 36.4 µM.

In the case of O=S1(=O)c2ccc(Br)cc2OCCC2CCCCN21 (stereo unspecified), the AC50 [1] is reported as > 100 µM (inactive), the AC50 [2] is reported as over 100 µM and the AC50 [3] is reported as over 100 µM.

NS(=O)(=O)c1cccc(NC(=O)c2cccc(-c3ccc(O)cc3)c2)c1 was tested, and the AC50 [1] was > 100 µM (inactive), the AC50 [2] was over 100 µM and the AC50 [3] was 50.8 µM.

Reference: PubChem BioAssay AID977628 (Broad Institute, 2014)
